From ChEMBL document CHEMBL1275374, “Ligand-based virtual screening and ADME-tox guided approach to identify triazolo-quinoxalines as folate cycle inhibitors” (Bioorg Med Chem, 2010)
The source made the active and inactive calls. The calls are words filed in the database; no cut-off is given here.

What was measured:
[1] = Solubility of the compound in dimethyl sulfoxide; format: physicochemical
Thymidylate synthase [2] = biological target: T1, Thymidylate synthase (Homo sapiens, UniProt P04818); assay: Inhibition of human thymidylate synthase expressed in Escherichia coli BL21 at 50 uM
Target sequence in this assay (P04818 2-313 limits assumed): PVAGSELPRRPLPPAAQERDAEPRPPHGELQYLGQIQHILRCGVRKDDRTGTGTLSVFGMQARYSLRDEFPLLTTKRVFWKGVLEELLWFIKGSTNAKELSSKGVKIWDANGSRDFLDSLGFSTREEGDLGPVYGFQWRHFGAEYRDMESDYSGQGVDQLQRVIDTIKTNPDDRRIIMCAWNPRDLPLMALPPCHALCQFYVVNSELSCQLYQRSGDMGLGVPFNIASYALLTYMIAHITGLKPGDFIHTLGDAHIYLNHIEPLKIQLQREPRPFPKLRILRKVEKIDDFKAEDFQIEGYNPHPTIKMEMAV

A2780 [3] = assay: Cytotoxicity against human cDDP-resistant A2780 cells after 72 hrs using crystal violet staining by spectrophotometric analysis; format: cell-based; conditions: A2780, 72 h
Vero = assay: Cytotoxicity against african green monkey Vero cells after 72 hrs using crystal violet staining by spectrophotometric analysis; format: cell-based; conditions: Chlorocebus sabaeus
[4] = Cytotoxicity against human cDDP-resistant C13 cells after 72 hrs using crystal violet staining by spectrophotometric analysis; format: cell-based; conditions: C13, 72 h
2008 [5] = assay: Cytotoxicity against human cDDP-sensitive 2008 cells after 72 hrs using crystal violet staining by spectrophotometric analysis; format: cell-based; conditions: Homo sapiens, 2008, 72 h
A2780 [6] = assay: Cytotoxicity against human cDDP-sensitive A2780 cells after 72 hrs using crystal violet staining by spectrophotometric analysis; format: cell-based; conditions: A2780, 72 h
Thymidylate synthase [7] = biological target: T1, Thymidylate synthase; assay: Inhibition of human thymidylate synthase expressed in Escherichia coli BL21 at 100 uM
Target sequence in this assay (P04818 2-313 limits assumed): as above

[8] = biological target: T2, Dihydrofolate reductase (Homo sapiens) (UniProt P00374); assay: Inhibition of human DHFR expressed in Escherichia coli BL21 at 100 uM
T2 sequence (whole entry): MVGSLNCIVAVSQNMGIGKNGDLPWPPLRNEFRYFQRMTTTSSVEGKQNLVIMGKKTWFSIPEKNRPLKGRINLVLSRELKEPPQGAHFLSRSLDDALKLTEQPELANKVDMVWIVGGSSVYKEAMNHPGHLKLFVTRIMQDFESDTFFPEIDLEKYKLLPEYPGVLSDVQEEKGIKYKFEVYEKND

2008 [9] = assay: Inhibition of DHFR protein expression in human cDDP-sensitive 2008 cells after 72 hrs by Western blotting; format: functional, cell-based
C13 = assay: Inhibition of DHFR protein expression in human cDDP-resistant C13 cells after 72 hrs by Western blotting; format: functional, cell-based
2008 [10] = assay: Inhibition of thymidylate synthase protein expression in human cDDP-sensitive 2008 cells after 72 hrs by Western blotting; format: functional, cell-based
[11] = Inhibition of thymidylate synthase protein expression in human cDDP-resistant C13 cells after 72 hrs by Western blotting; format: functional, cell-based
Thymidylate synthase [12] = biological target: T1, Thymidylate synthase; assay: Inhibition of thymidylate synthase catalytic activity in human cDDP-sensitive 2008 cells after 72 hrs by Western blotting (reference value: 38.8 +/- 3.9%); format: cell-based; conditions: concentration not given here
Target sequence in this assay (P04818 2-313 limits assumed): as the sequence (P04818 2-313 limits assumed) above

Thymidylate synthase [13] = biological target: T1, Thymidylate synthase; assay: Inhibition of thymidylate synthase catalytic activity in human cDDP-resistant C13 cells after 72 hrs by Western blotting (reference value: 12.9 +/- 0.6%); format: cell-based; conditions: concentration not given here
Target sequence in this assay (P04818 2-313 limits assumed): as the sequence (P04818 2-313 limits assumed) above

2008 [14] = assay: Induction of ROS accumulation in human cDDP-sensitive 2008 cells at IC50 concentration after 72 hrs […]; format: cell-based; conditions: human, 2008, 72 h
[15] = Induction of ROS accumulation in human cDDP-resistant C13 cells at IC50 concentration after 72 hrs […]; format: cell-based; conditions: c13, 72 h
Thymidylate synthase [16] = biological target: T1, Thymidylate synthase; assay: Inhibition of human thymidylate synthase expressed in Escherichia coli BL21
Target sequence in this assay (P04818 whole entry): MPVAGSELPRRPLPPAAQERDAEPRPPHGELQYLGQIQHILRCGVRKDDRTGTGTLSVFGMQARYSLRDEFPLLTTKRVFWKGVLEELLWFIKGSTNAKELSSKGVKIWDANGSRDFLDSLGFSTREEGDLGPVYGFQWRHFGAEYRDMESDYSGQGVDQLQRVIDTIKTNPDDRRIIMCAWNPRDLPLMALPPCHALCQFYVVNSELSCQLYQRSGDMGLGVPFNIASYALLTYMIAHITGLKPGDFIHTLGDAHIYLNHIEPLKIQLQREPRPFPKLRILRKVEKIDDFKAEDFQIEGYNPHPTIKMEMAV

[17] = Cytotoxicity against human Fibroblast at up to 100 uM after 72 hrs using crystal violet staining by spectrophotometric analysis; format: cell-based
Thymidylate synthase [18] = biological target: T1, Thymidylate synthase; assay: Inhibition of human thymidylate synthase expressed in Escherichia coli BL21 at 25 uM
Target sequence in this assay (P04818 2-313 limits assumed): as the sequence (P04818 2-313 limits assumed) above

Row | inhibition (Thymidylate synthase [2]) | Structure (SMILES) | IC50 (A2780 [3]) | IC50 (Vero) | IC50 [4] | IC50 2008 [5] | IC50 (A2780 [6]) | other results
1 | 70% | Cc1ccc(S(=O)(=O)N(C)c2nc3ccccc3n3c(-c4ccccc4)nnc23)cc1 |  |  |  |  |  | inhibition [8]: inactive
2 | < 5% | FC(F)(F)c1nc2ccccc2n2c(-c3ccc(Cl)cc3)nnc12 | 4.7 µM | 1.2 µM | 3.4 µM | 2.5 µM | 2.3 µM | 
3 | < 5% | Cc1cccc(-c2c3c(=O)n(C)c(=O)n(C)c3c3c(C(F)(F)F)nc4ccccc4n23)c1 |  | 100 µM | 55 µM | 49 µM |  | 
4 | 28% | Clc1nc2ccccc2n2c(-c3ccccc3)nnc12 | 6 µM | 18.2 µM | 13 µM | 12.5 µM | 2.5 µM | Ki (Thymidylate synthase [16]): 10 µM; Activity [17]: Non-toxic

Continued, molecule first:

Row | Structure (SMILES) | inhibition (Thymidylate synthase [2]) | IC50 (A2780 [3]) | IC50 (Vero) | IC50 [4] | IC50 2008 [5] | IC50 (A2780 [6]) | other results
5 | C=CCn1cnc2c(c1=O)c1nc3ccccc3nc1n2CCCC | < 5% |  |  |  |  |  | solubility [1]: Insoluble
6 | COc1ccc(C(=O)c2nc3ccccc3nc2N2CCN(C)CC2)cc1 |  | 27.4 µM | 42.4 µM | 8.3 µM | 18.8 µM | 17.4 µM | 
7 | Fc1ccccc1-c1nnc2c(C(F)(F)F)nc3ccccc3n12 |  | 11 µM | 14 µM | 27 µM | 17.5 µM | 9 µM | inhibition (Thymidylate synthase [7]): 17%; inhibition [8]: 10%
8 | O=C(Nc1cc(C(F)(F)F)ccc1Cl)c1ccc2nccnc2c1 | < 5% |  |  | 50 µM | 50 µM |  | 
9 | Cc1ccc(-c2nc3ccccc3n3cc4c(=O)n(C)c(=O)n(C)c4c23)cc1 | < 5% |  | 100 µM | 56 µM | 53 µM |  | solubility [1]: Insoluble
10 | O=C(c1ccco1)N1N=C(c2ccc3nccnc3c2)CC1c1ccccc1 (configuration not stated) | < 5% |  |  |  |  |  | inhibition (Thymidylate synthase [7]): inactive
11 | COCCn1c(C)nc2c(c1=O)c1nc3ccccc3nc1n2-c1cc(C)cc(C)c1 | < 5% |  |  |  |  |  | solubility [1]: Insoluble
12 | FC(F)(F)c1ccc(-c2nnc3c(C(F)(F)F)nc4ccccc4n23)cc1 |  |  |  |  |  |  | inhibition (Thymidylate synthase [7]): 22%; inhibition [8]: 10%
13 | Cc1cc(Nc2nc3ccccc3n3cnnc23)ccc1Br | < 5% |  | 20 µM | 19 µM | 17 µM |  | 
14 | COc1cc(Nc2nc3cc(C(F)(F)F)ccc3nc2C)cc(OC)c1OC |  | 35.3 µM | 40.2 µM | 14.2 µM | 28.8 µM | 27.5 µM | 
15 | Cc1ccc(-c2nnc3c(N(C)C)nc4ccccc4n23)cc1 |  |  |  |  |  |  | inhibition (Thymidylate synthase [7]): 41%; inhibition [8]: inactive
16 | FC(F)(F)c1nc2ccccc2n2c(-c3c(Cl)cccc3Cl)nnc12 |  | 25 µM | 10 µM | 28 µM | 37 µM | 27.5 µM | inhibition 2008 [9]: inactive; inhibition (C13): inactive; inhibition 2008 [10]: inactive; inhibition [11]: inactive; inhibition (Thymidylate synthase [12]): 58.9%; inhibition (Thymidylate synthase [13]): 32.3%; Activity 2008 [14]: Non-toxic; Activity [15]: Non-toxic
17 | Cc1ccc(-c2nnc3c(C(F)(F)F)nc4ccccc4n23)cc1 |  | 35.7 µM | > 50 µM | 26.7 µM | 42.5 µM | 33 µM | inhibition 2008 [9]: inactive; inhibition (C13): inactive; inhibition 2008 [10]: inactive; inhibition [11]: inactive; inhibition (Thymidylate synthase [12]): 38.8%; inhibition (Thymidylate synthase [13]): 12.9%; Activity 2008 [14]: Non-toxic; Activity [15]: Non-toxic
18 | COCCn1cnc2c(c1=O)c1nc3ccccc3nc1n2-c1ccc(Cl)c(Cl)c1 | < 5% |  | 52 µM | 36 µM | 31 µM |  | solubility [1]: Insoluble
19 | Cc1ccc(S(=O)(=O)N2CN(c3ccccc3)c3nc4ccccc4nc32)cc1 | < 5% |  |  | 50 µM | 50 µM |  | 
20 | CN1CCN(c2nc3ccccc3n3c(-c4ccccc4)nnc23)CC1 |  | 38 µM | 22 µM | > 50 µM | 48 µM | 18 µM | inhibition (Thymidylate synthase [7]): < 10%; inhibition [8]: 40%
21 | Clc1ccc(Oc2nc3ccccc3n3c(-c4ccc(Cl)cc4)nnc23)cc1 |  |  |  |  |  |  | inhibition (Thymidylate synthase [18]): 53%; inhibition [8]: inactive
22 | O=C(CSc1nc2ccccc2nc1-c1ccccc1)N1CCCCCC1 | < 5% |  |  |  |  |  | 
23 | COc1ccc(-c2nc3ccccc3n3cc4c(=O)n(C)c(=O)n(C)c4c23)cc1 | < 5% |  |  |  |  |  | solubility [1]: Insoluble
24 | O=C(Nc1cccc(Br)c1)c1ccc2nccnc2c1 | < 5% |  |  | 50 µM | 50 µM |  | 
25 | N#Cc1c(N)n(CCc2ccccc2F)c2nc3ccccc3nc12 | < 5% |  | 9.1 µM | 22 µM | 18 µM |  | 
